The values below come from the Deep4Chem optical property database.

This data set in a line: photoluminescence quantum yield (fraction); solvent given as SMILES.

Several values for one entry are separate records, joined by “and”; a condition that tells them apart may be missing. Identical values can stand only once.

`N#CC(C#N)=Cc1ccc(-c2ccc(-c3nc4ccccc4s3)c(O)c2)o1`: the photoluminescence quantum yield by setting is: (in CCO) 0.0089; (in ClCCl) 0.0121; (in O) 0.01.

For the compound `CCOC(=O)C(Cc1ccc(O[Si]2(Oc3ccc(CC(NC(C)=O)C(=O)OCC)cc3)n3c4c5ccccc5c3/N=C3N=C(/N=c5/c6ccccc6/c(n52)=N/C2=NC(=N\4)/c4ccccc42)c2ccccc2\3)cc1)NC(C)=O` (centres undefined), the photoluminescence quantum yield (in CN(C)C=O) amounted to 0.11.

As to `CCOC(=O)c1c2c3c(ccc(C)c3c3cc4c(cc13)[Si](C)(C)O[Si]4(C)C)N(C)C2=O`, the photoluminescence quantum yield (in CC#N) was 0.4.

Take `CC/[NH+]=c1\cc2oc3cc(NCCC(=O)NC(CCC(=O)OC)C(=O)OC)c4ccccc4c3nc-2cc1C` (centres undefined): the photoluminescence quantum yield is, setting by setting: (in CCO) 0.48; (in O) 0.16.

As for `Cc1cc(C)c(C2=C3C=CC(c4ccccc4O)=[N+]3[B-]3(c4ccccc4)Oc4ccccc4-c4ccc2n43)c(C)c1` (centres undefined), under “in ClC(Cl)Cl”, the photoluminescence quantum yield turned out to be 0.65.

The compound `Cc1nc2c(ccc3c2sc(/C=C/c2ccc(N(CCO)CCO)cc2)[n+]3C)s1` yielded a photoluminescence quantum yield (in CO) of 0.023 and a photoluminescence quantum yield (in ClC(Cl)Cl) of 0.02.

Consider `C(=C\c1ncccn1)/c1ccc(-c2ccc(N(c3ccccc3)c3ccccc3)cc2)cc1`, for which the photoluminescence quantum yield (in ClCCl) was found to be 0.6.

As to `Cc1cccc2[n+]1[B-](F)(F)n1c(c3cccc4cccc1c43)=N2`, the photoluminescence quantum yield is, setting by setting: (in C1CCOC1) 0.99; (in CC#N) 0.99; (in CCCCCC) 0.99; (in Cc1ccccc1) 0.99; (in ClCCl) 0.99.

`CC1(C)c2ccccc2N(c2ccc(-c3ccc4c(c3)C(=O)c3ccc(-c5ccc(N6c7ccccc7C(C)(C)c7ccccc76)cc5)cc3C4=O)cc2)c2ccccc21`: the photoluminescence quantum yield runs as follows: (in Cc1ccccc1) 0.17; (in c1ccc2c(c1)c1ccccc1n2-c1ccc(-c2ccc(-n3c4ccccc4c4ccccc43)cc2)cc1) 0.5.

Turning to `C1=C2C3=C(C4=[N+]2[B-]2(Oc5ccccc54)Oc4ccccc4-c4c5c(c1n42)C1CCC5CC1)C1CCC3CC1` (centres undefined), the photoluminescence quantum yield (in ClCCl) was determined as 0.99.

In the case of `COc1cccc2cc(C)c3c4ccccc4[nH]c3c12`, where the note is “in ClCCl”, the photoluminescence quantum yield is 0.284.

`COc1ccccc1C1=[N+]2C(=C(c3ccc(I)cc3)c3ccc(-c4ccccc4OC)n3[B-]2(F)F)C=C1`: the photoluminescence quantum yield (in ClC(Cl)Cl) was 0.08 and 0.07.

For the compound `COc1ccc2cc(C3=[N+]4C(=Nc5c(-c6ccc7ccccc7c6)cc(-c6ccc7cc(OC)ccc7c6)n5[B-]4(F)F)C(c4ccc5ccccc5c4)=C3)ccc2c1`, under “in ClCCl”, the photoluminescence quantum yield came out at 0.29.

Take `CN(C)c1ccc2c(c1)COc1c-2oc2ccccc2c1=O`: the photoluminescence quantum yield was 0.5 (in C1CCCCC1); 0.91 (in C1CCOC1); 0.86 (in CC#N); 0.95 (in CCOC(C)=O); 1 (in CCOCC); 0.68 (in CO). The same compound came in with a photoluminescence quantum yield (in Cc1ccccc1) of 1.

In turn, `CN(C)c1ccc(/C=C/c2cc(/C=C/c3ccc(N(C)C)cc3)nc(/C=C/c3ccc(N(C)C)cc3)n2)cc1` came in with a photoluminescence quantum yield (in ClCCl) of 0.22.

In turn, `Cc1ccc(C2=C3C=C(I)C=[N+]3[B-](F)(F)n3cc(I)cc32)cc1` yielded a photoluminescence quantum yield (in C1CCCCC1) of 0.012; a photoluminescence quantum yield (in CC#N) of 0.005; a photoluminescence quantum yield (in CCO) of 0.006; a photoluminescence quantum yield (in CCOC(C)=O) of 0.007; a photoluminescence quantum yield (in CO) of 0.005; a photoluminescence quantum yield (in OCC(F)(F)F) of 0.006.

`F[B-]1(F)OC(c2ccc(C(F)(F)F)cc2)=Cc2ccc3ccccc3[n+]21` gave a photoluminescence quantum yield (in ClC(Cl)Cl) of 0.37.

Regarding `Clc1ccc(/C=C/c2cnc3ccccc3n2)cc1`, the photoluminescence quantum yield (in ClCCl) came to 0.01.

In the case of `COc1ccc2cc(C3=[N+]4C(=Nc5c(-c6ccccc6)cc(-c6ccc7cc(OC)ccc7c6)n5[B-]4(F)F)C(c4ccccc4)=C3Br)ccc2c1`, the photoluminescence quantum yield came out at 0.12 (in ClC(Cl)Cl) and 0.12 (in ClCCl).

For the compound `N#CC=C(c1ccc(N2c3ccccc3Oc3ccccc32)cc1)c1ccc(N2c3ccccc3Oc3ccccc32)cc1`, the photoluminescence quantum yield (in Cc1ccccc1) was determined as 0.371.

The compound `CC1=CC(C)=[N+]2C1=C(c1c3ccccc3cc3ccccc13)c1c(C)cc(C)n1[B-]2(F)F` returned a photoluminescence quantum yield (in CC#N) of 0.006; a photoluminescence quantum yield (in CCCCCC) of 0.99; a photoluminescence quantum yield (in CCO) of 0.038; a photoluminescence quantum yield (in CN(C)C=O) of 0.011; a photoluminescence quantum yield (in Cc1ccccc1) of 0.92; a photoluminescence quantum yield (in ClCCl) of 0.072.

For `CCC(CC)COC1=CC2=C3c4cc(OCC(CC)CC)c(-c5cccs5)n4[B-](F)(F)[n+]4c3n(c3cc(C(C)(C)C)ccc34)[B-](F)(F)[N+]2=C1c1cccs1`, the photoluminescence quantum yield (in C1CCOC1) came out at 0.07 and the photoluminescence quantum yield (in ClCCl) was 0.07.

With `c1cc2ccc3ccc4cc3c2cc1c1ccc2ccc3ccc(cc3c2c1)c1ccc2ccc3ccc4cc3c2c1`, where the note is “in Cc1ccccc1”, the photoluminescence quantum yield was determined as 0.75.

As for `CCN(CC)c1ccc(C(=C(c2ccccc2)c2ccc(B(c3c(C)cc(C)cc3C)c3c(C)cc(C)cc3C)cc2)c2ccc(N(CC)CC)cc2)cc1`, under “in C1CCOC1”, the photoluminescence quantum yield was determined as 0.19.

As to `Cc1cc(C)c(B(c2ccc(-c3ccc(-c4nc5c6ccccc6c6ccccc6c5[nH]4)cc3)cc2)c2c(C)cc(C)cc2C)c(C)c1`, the photoluminescence quantum yield stood at 0.74 (in C1CCOC1); 0.56 (in CC(C)=O); 0.49 (in CS(C)=O); 0.68 (in Cc1ccccc1); 0.59 (in ClCCl).

Regarding `CC1(C)C(/C=C/C=C/C=C/C=C2/N(S(=O)(=O)[O-])c3ccc(S(=O)(=O)[O-])cc3C2(C)C)=[N+](S(=O)(=O)[O-])c2ccc(S(=O)(=O)[O-])cc21`, the photoluminescence quantum yield by setting is: (in CO) 0.55; (in O) 0.29.

With `CCCCCCN(c1ccccc1)c1ccc2c(c1)C(CC)(CC)c1cc(/C=C/c3ccc(/C=C(\C#N)C(=O)O)s3)ccc1-2`, the photoluminescence quantum yield runs as follows: (in C1CCOC1) 0.458; (in C1COCCO1) 0.813; (in CC#N) 0.105; (in CC(C)=O) 0.251; (in CCOC(C)=O) 0.443; (in CN(C)C=O) 0.638. Further, the photoluminescence quantum yield came to 0.322 (in CS(C)=O) and 0.047 (in ClCCl).

With `CCN(CC)c1ccc2cc(/C=C/C(=C(C#N)C#N)c3ccc4c(c3)c3ccccc3n4CC)c(=O)oc2c1`, the photoluminescence quantum yield by setting is: (in CC(C)=O) 0.174; (in CCOC(C)=O) 0.125; (in CN(C)C=O) 0.194; (in CS(C)=O) 0.185; (in Cc1ccccc1) 0.041; (in ClCCl) 0.146.

Turning to `CCOC(=O)COc1ccc(/C=C/C2=C3c4ccccc4C(c4[nH]c(C)cc4C)=[N+]3[B-](F)(F)n3c(/C=C/c4ccc(OCC(=O)OCC)cc4)cc(C)c32)cc1`, the photoluminescence quantum yield worked out at 0.05 (in C1CCOC1); 0.009 (in CC#N); 0.04 (in CCCCCC); 0.002 (in CO); 0.009 (in Cc1ccccc1); 0.012 (in ClCCl).

`Oc1ccc2ccccc2c1` yielded a photoluminescence quantum yield (in C1CCCCC1) of 0.51.

`Cc1ccc(C(=O)c2c(C)c3ccc4cccc5c6cccc7ccc2c(c76)c3c45)cc1`: under “in ClCCl”, the photoluminescence quantum yield turned out to be 0.039.

Consider `O=C1OC(c2ccccc2)=N/C1=C\c1ccc(N(c2ccccc2)c2ccccc2)cc1`, for which the photoluminescence quantum yield amounted to 0.031 (in C1CCCCC1); 0.108 (in C1CCOC1); 0.045 (in C1COCCO1); 0.043 (in CC1CCCCC1); 0.014 (in CC#N); 0.055 (in CC(C)=O). The photoluminescence quantum yield is, setting by setting: (in CC(C)CC(C)(C)C) 0.028; (in CCCCC) 0.029; (in CCCCCC) 0.031; (in CCCCCCC) 0.034; (in CCCCOCCCC) 0.036; (in CCOC(C)=O) 0.095. This compound gave a photoluminescence quantum yield (in CCOCC) of 0.072; a photoluminescence quantum yield (in CN(C)C=O) of 0.014; a photoluminescence quantum yield (in CS(C)=O) of 0.012; a photoluminescence quantum yield (in Cc1ccccc1) of 0.034; a photoluminescence quantum yield (in ClC(Cl)Cl) of 0.028.

For `Oc1ccccc1-c1nc2ccccc2s1`, the photoluminescence quantum yield (in CCO) worked out at 0.0155, the photoluminescence quantum yield (in ClCCl) was found to be 0.0368 and the photoluminescence quantum yield (in O) is 0.101.

As to `CC(C)(C)c1ccc(-c2c(-c3ccc(-n4c5ccccc5c5ccccc54)cc3)cc(-c3ccc(-n4c5ccccc5c5ccccc54)cc3)c(-c3ccc(C(C)(C)C)cc3)c2-c2ccc(C(C)(C)C)cc2)cc1`, under “in C1CCOC1”, the photoluminescence quantum yield was determined as 0.343.

Consider `Cc1c(C)n2c(COC(=O)c3ccccc3O)c(C)c(=O)n2c1=O`, for which, where the note is “in CCO”, the photoluminescence quantum yield came out at 0.641.

Turning to `c1ccc(-c2nc(-c3ccccc3)nc(-c3ccc(-c4ccc(N5c6ccccc6[Si](c6ccccc6)(c6ccccc6)c6ccccc65)cc4)cc3)n2)cc1`, where the note is “in c1cc(-n2c3ccccc3c3ccccc32)cc(-n2c3ccccc3c3ccccc32)c1”, the photoluminescence quantum yield worked out at 0.38.

`CCOC(=O)C1=C(C(=O)OCC)C2(c3ccccc3-c3ccccc32)[C@@H](c2ccc(Cl)cc2)C=C2c3cc(OC)c(OC)cc3CCN21` showed a photoluminescence quantum yield (in ClCCl) of 0.00114.

`CCCCCCCCCCN1C(=O)c2cc(NCCCOCCO)c3c4c(cc(NCCCOCCO)c(c24)C1=O)C(=O)N(CCCCCCCCCC)C3=O`: the photoluminescence quantum yield by setting is: (in CO) 0.43; (in ClC(Cl)Cl) 0.58.

Turning to `C[N+]1=C(/C=C/C=C2/N(CCCS(=O)(=O)[O-])c3ccccc3C2(C)C)C(C)(C)c2ccccc21`, the photoluminescence quantum yield (in CS(C)=O) was found to be 0.1.

For `CCCCN1C(=O)c2cccc3c(C#CC#Cc4ccc5c6c(cccc46)C(=O)N(CCCC)C5=O)ccc(c23)C1=O`, the photoluminescence quantum yield (in ClCCl) was found to be 0.81.

For the setting “in C1CCOC1”, `CC1=[N+]2C(=C(c3ccc(C(=C(c4ccccc4)c4ccccc4)c4ccccc4)cc3)c3ccc(C)n3[B-]2(F)F)C=C1` displayed a photoluminescence quantum yield of 0.038.
